# Measured values: patent US9833486B2, “Compositions comprising selenium and use of same for the treatment and prevention of disease or conditions associated with mitochondrial dysfunction” (ALLTECH, INC., priority 2013, dated 2017)
# Values joined by “and” are separate entries in the source; they are usually repeats but may differ in a detail not shown here. Equal values may be shown once. “Also recorded” adds a separate entry of the source. *1 amine or outer side, *2 acyl side, *3 side chain or, on linkers, in order; H or OH if unused. Where a SMILES comes first, the peptide text is derived from it. Bridges are numbered along the chain shown (N, C = ends). Roman numbers before positions name the chains, in order. [ ]: non-standard residue; d: D form. γGlu = O=C(O)[C@H](CCC(=O)[*:2])N[*:1]; Sec = N[C@@H](C[SeH])C(=O)O
# What was measured:
# [1] = Oxygen radical absorbance capacity (ORAC) antioxidant assay; details: Trolox Equivalents; singly or in combination
# Experimental: Briefly, samples of selenium containing compounds (e.g., identified in Example 1) were analyzed using the Trolox assay kit, according to the manufacturer's instructions. Compounds were tested singly or in combination (at concentrations ranging from 0.05 to 5 μM) to examine for potential synergies, antagonisms or purely additive effects.
# [2] = test system: rat brain purified mitochondria; assay: Mitochondrial bioenergetics, oxygen consumption rates (Seahorse flux analyzer); type: biochemical; design: key to Trend of effect on mitochondrial bioenergetics: 1: Positive Trend; 2: Positive/Negative trend; 3: Negative Trend; 4: No Change; details: for Trend of effect on mitochondrial bioenergetics: Table 7; for STATE V (State VFCCP, complex I dependent maximum respiratory capacity) / STATE Vsucc (complex II dependent maximum respiratory capacity) / STATE III (OCR, ATP synthesis): rat brain purified mitochondria 5 μg/well; for STATE V (State VFCCP, complex I dependent maximum respiratory capacity) / STATE Vsucc (complex II dependent maximum respiratory capacity) / STATE III (OCR, ATP synthesis) / STATE III % change / STATE V % change / STATE Vsucc % change / Effect on mitochondrial activity / bioenergetics profile (in words): 500 ppb; for STATE V (State VFCCP, complex I dependent maximum respiratory capacity): CTRL 182.1; for STATE Vsucc (complex II dependent maximum respiratory capacity): CTRL 350.1; for STATE III (OCR, ATP synthesis): CTRL 432.6; for STATE III % change / STATE V % change / STATE Vsucc % change: vs control; for STATE III % change / STATE V % change / STATE Vsucc % change / Effect on mitochondrial activity / bioenergetics profile (in words): Seahorse
# Experimental: Mitochondria isolated from rat brain were chosen for this purpose for a number of reasons, including a) the ease with which mitochondria can be isolated from soft tissue, such as brain and b) the fact that brain tissue has a high demand for glucose and oxygen.
# Experiments were conducted as follows: a variety of concentrations of selenium containing compounds were tested ranging from low (50 ppb), mid (500 ppb) and high (1 ppm). […] Adult rat brain ficoll purified mitochondria were isolated and incubated with the individual selenium containing compounds for 30 minutes at 37 C prior to being loaded into a Seahorse Biosciences flux analyzer in triplicate. OCR (Oxygen Consumption Rates) parameters were measured in three respiratory states including ATP synthesis (State III), Complex I dependent (NADH-driven) Maximum Respiratory Capacity (State VFCCP) and Complex II (FADH-driven) dependent Maximum Respiratory Capacity (State Vsucc). Sea Horse assay was performed as described (See, e.g., Sauerbeck et al., J Neurosci Methods. 2011 May 15; 198(1): 36-43; Seahorse XF, Seahorse Bioscience Inc).
# mice = assay: Expression of oxidative phosphorylation (OXPHOS) molecules in liver; type: in vivo, mouse
# Experimental: Utilizing the animal model described in Example 2, experiments were conducted to analyze the expression of molecules that regulate oxidative phosphorylation (OXPHOS) in the liver of subjects administered a composition comprising selenium.
# [3] = test system: pyruvate dehydrogenase complex (PDHC); assay: PDHC enzyme activity in isolated cortical mitochondria; type: biochemical, rat
# Experimental: (§1) In order to measure pyruvate dehydrogenase complex (PDHC) activity as well as mitochondrial Complex I activity, cortical mitochondria were isolated from adult SD rats using a ficoll gradient method. Methylselenoadenosine was tested at four concentration ranges (0, 50, 500 and 1000 PPB). All assays were done in triplicate with co-incubation of the individual compounds with mitochondria (60 μg mitochondrial protein/well) in 100 μl assay system using standard techniques in a 96-well fluorescence plate reader.
# mitochondrial Complex I = assay: Mitochondrial Complex I activity in isolated cortical mitochondria; type: biochemical, rat; details: 0, 50, 500, 1000 PPB
# Experimental: as §1
# mitochondria = assay: Mitochondrial respiration by oxytherm (Clark-type electrode); type: biochemical, rat; details: 60 μg mitochondrial protein, 500 ppb, 30 minutes
# Experimental: The bioactivities of selenium containing peptide LVSe-MR (C22H44N7O5Se) (#6) and methylselenoadenosine (C11H15N5O3Se) (#9) were analyzed utilizing oxytherm (Clark-type electrode) (See, e.g., Chance and Williams, J Biol Chem, 1955, 217, 383-393; Sullivan et al., J. Bioenerg. Biomembr. 36, 353-356.). Oxytherm analysis allows the determination of oxygen uptake or evolution measurements across a broad range of applications including mitochondrial and cellular respiration. For this experiment, 60 μg mitochondrial protein was co-incubated with either compound LVSe-MR (C22H44N7O5Se) or methylselenoadenosine (500 ppb) or their corresponding equivalent concentrations of respective controls (LVMR and methylthioadenosine, respectively) for 30 minutes prior to injection into the oxytherm chamber. Mitochondrial activity (measured and presented as the rate of mitochondrial respiration observed as % change in nmols O2/min/mg of mitochondrial protein) was measured in the presence of each compound.
# Complex IV = Complex IV enzyme activity in isolated cortical mitochondria; type: biochemical, rat; details: 0, 50, 500, 1000 PPB
Molecule,TE Value [1] [TE],Trend of effect on mitochondrial bioenergetics [2],"STATE V (State VFCCP, complex I dependent maximum respiratory capacity) [2]",STATE Vsucc (complex II dependent maximum respiratory capacity) [2],"STATE III (OCR, ATP synthesis) [2]",STATE III % change [2],STATE V % change [2],STATE Vsucc % change [2],Effect on mitochondrial activity / bioenergetics profile (in words) [2],also measured
"C[Se]CC[C@H](N)C(=O)O [#4, L-Selenomethionine]",1.228,–,–,–,–,–,–,–,–,–
"N[C@@H](CCC(=O)N[C@@H](C[Se][Se]C[C@H](NC(=O)CC[C@H](N)C(=O)O)C(=O)NCC(=O)O)C(=O)NCC(=O)O)C(=O)O [#8, Selenoglutathione dimer] (I: γGlu-[Sec]-Gly-OH / II: γGlu-[Sec]-Gly-OH; diselenide I:1-II:1)",–,#8^4,192.3,371.0,424.0,−2.1%,5.7%,6.0%,–,–
"N[C@@H](CCC(=O)O)C(=O)N[C@@H](CS)C(=O)O [#30, Glutamylcysteine, reference compound] (H-Glu-Cys-OH)",–,#30^2,153.8,305.4,423.2,−2.3%,−15.5%,−12.7%,–,–
C[Se]CC[C@H](N)C(=O)O [selenomethionine],–,–,–,–,–,–,–,–,–,"expression of ATP synthase (mice): significant increase; expression of ATPase inhibitory factor 1 (mice): significantly reduced; expression of ATPase, H+ transporting lysosomal, V1 subunit H (mice): significantly reduced; expression of ATPase, H+ transporting, V1 subunit A (mice): significantly reduced; expression of cytochrome c oxidase, subunit Va (mice): significant increase; regulation of liver specific mitochondrial activity, compared with selenium enriched yeast (mice): significantly less effective"
Glutamylselenocysteine dimer [#10],–,#10^3,112.7,254.4,352.1,−18.7%,−38.1%,−27.3%,negative effect,decreased ATP synthesis (State III) ([2]; decrease vs control): ~19%
Methylselenoadenosine [#9],0.722,#9^1,210.3^1,437.1^1,507.8^1,17.3% and 17.3^1%,15.6% and 15.6^1%,25% and 24.9^1%,positive increases in all three states of respiration; also recorded: remarkably increase mitochondrial bioenergetics profiles,"PDHC activity (in words) ([3]; 0, 50, 500, 1000 PPB): increased; enhanced PDHC enzyme activity ([3]; 0-1000 PPB, depending upon the concentration, p<0.05 at 1000 PPB): 30-57%; Complex I activity (in words) (mitochondrial Complex I): increased; State III increase compared to control (mitochondria): 29.9%; State VFCCP increase compared to control (mitochondria): 17.3%; State Vsucc increase compared to control (mitochondria): 15.3%; Complex IV enzyme activity (in words) (Complex IV): No changes"
